# Values quoted from earlier work as cited in patent US20040076682A1, “Novel ophthalmic compositions” (priority 2001, published 2004).
# System: Streptococcus sp
# Settings: Streptococcus sp clinical isolate of ocular infections
smiles,measurement,value
CCn1cc(C(=O)O)c(=O)c2cc(F)c(N3CCNCC3)cc21 [norfloxacin],MIC80,12.5 µg/mL
